Assay [1] deals with E. coli BL21. Kind of assay: Cell viability (colony counts / spot dilution on LB agar). The assay is classed as cell-based, Escherichia coli. The procedure:
(§1) All growth studies were performed in Luria-Bertani (LB) broth containing Penicillin G (150 μg/ml), using E. coli BL21 as the host strain except where noted. Frozen stocks of cell strains were first grown overnight at 30°C, without shaking, in 2 ml of LB containing PenG. The starter cultures were then diluted 1:100 in 3.5 ml of LB containing PenG, in plastic 15x90 mm tubes with loose-fitting caps, and the tubes were then tilted about 15–20 degrees from vertical and incubated at 37°C with shaking (300 rpm). Cell growth for all experiments except those shown in Fig 1 was monitored at the indicated times by measuring the optical density of culture samples (diluted 1:10 in saline) at 600 nm, using a Perkin Elmer Lambda 14 UV/VIS spectrophotometer and semi-micro glass cuvettes (1 ml sample volume). For the experiments shown in Fig 1, OD600 measurements were performed on 200 μl of undiluted culture using a 96-well plate reader. […] To measure cell viability, culture samples were serially diluted in LB broth, mixed with molten top agar and plated on LB agar containing PenG. The number of colonies was then counted after overnight incubation of plates at 37°C.
Supplementary file pone.0258794.s001.tif: S1 Fig Bactericidal effect of Kanamycin. Samples of an E. coli BL21 culture growing in LB broth were treated at early log phase (T = 0) with Cm (30 μg/ml) or Kan (50 μg/ml). After further incubation at 37°C for 30 or 60 min, samples of the untreated (UT) and antibiotic-treated cultures were diluted (serial 1:10), and 3 μl of each dilution was spotted onto an LB agar plate. The plate was then photographed after incubation overnight at 37°C. (TIF) Click here for additional data file.

Assay [2] concerns E. coli BL21 cells. Briefly: Hoechst 33342 uptake by fluorescence microscopy. The assay is classed as cell-based, Escherichia coli. As for the experimental part:
(§2) Culture samples (0.3 ml) collected at the indicated times were centrifuged and the cell pellets were resuspended in 20–100 μl of Tris-buffered saline pH 8 (TBS) and held on ice. Cell suspensions were then stained with 1 μl of Hoechst 33342 (10 mg/ml stock solution was first diluted 1:100 in TBS). After incubation for 10 min on ice, 2 μl samples of cell suspension were mounted on coverslides using agarose blocks as described. Cells were then examined by epi-fluorescence microscopy, using a Zeiss Axiophot and a 63X oil immersion lens. Exposure times for 2-channel images (both transmitted and reflected light) were set automatically using on-board Zen 2011 software. In some experiments as noted, exposure times for reflected light images were fixed at 1 s, for comparison of relative fluorescence intensity. Brightfield images of E. coli cell aggregates were taken with a Nikon Eclipse T2 inverted microscope using a 20X lens and laser-based LED white light source, located at the Brookhaven National Laboratory Center for Functional Nanomaterials.

The subject of assay [3] is E. coli BL21 nucleoids. Kind of assay: Nucleoid conformation by fluorescence microscopy. The assay is classed as cell-based, Escherichia coli. Particulars: for Nucleoid conformation: H33342 staining, BL21 (Fig 6, S6 Fig). The procedure: as §2
A culture sample also was left untreated (UT) for comparison. Cell samples were then collected after further incubation for 20, 40 or 60 min, washed with PBS, stained with H33342, and mounted on glass slides under agarose pads for fluorescence microscopy using a 40X oil immersion lens. The exposure time for each image was automatically set by microscope software. Scale bar = 20 μm. (TIF) Click here for additional data file.

For assay [4], the system named is E. coli BL21. Briefly: Growth analysis (culture OD600). The assay is classed as cell-based, Escherichia coli. The procedure:
as §1

Assay [5] has as its system σ32 transcription factor.
Procedure: E, Western blot analysis of σ32 levels in cells following exposure to the indicated antibiotics for 20, 60, or 120 min as indicated. Cell extract from a non-induced culture was loaded in lane 1.
Equal volumes of cell cultures were centrifuged, and cell pellets were resuspended directly in 2X Laemmli sample buffer at a concentration of 5 OD600 units per ml based on culture OD600 at the time of sampling. To reduce viscosity, samples were sonicated using a cuphorn sonicator or passed through a 27-gauge needle prior to loading on SDS-polyacrylamide gels. Proteins were visualized either by staining gels directly with Coomassie Blue or after semi-dry electroblotting to immobilon membranes for Western blot analysis. Anti-σ32 monoclonal antibodies were purchased from BioLegend, San Diego, CA. Rabbit anti-DnaK and DnaJ serum was kindly provided by B. Bukau. Anti-GroEL antibodies were purchased from Sigma-Aldrich.
An aliquot of culture also was left untreated (NI) for comparison. Cultures were then incubated at 37°C with shaking, and cell growth was monitored by measuring culture optical density at 600 nm (OD600) using a microplate reader. B, samples of each culture were collected at 20, 60 and 90 min after treatment, and cells were lysed in 2X SDS-PAGE sample buffer at a concentration of 1.2 OD600 units per ml. Equal volumes of each sample were then analyzed by Western blotting, using antibodies against σ32 and σ70. Only the 20 min and 60 min samples of the Spectinomycin-treated culture were analyzed.
For assay [6], the system named is E. coli BL21 nucleoids. Also on record: method as in PMID 25250841. Particulars: transcription inhibited; cited from earlier work.
In assay [7] the test system is E. coli DnaK. Conditions: by comparison with NR and σ32 peptides; cited from earlier work.

Entries after “also recorded” stand apart in the source; their conditions may differ. Where two headings read alike, the source gives them in different places.

On to `O=C(N[C@H](CO)[C@H](O)c1ccc([N+](=O)[O-])cc1)C(Cl)Cl` [Cm, chloramphenicol], for which, in assay [1] (30 μg/ml, samples at 0, 1, 2 and 5 h (Fig 2E)), the “Cell viability following growth arrest” value is “remained viable for several hours”. In assay [1] (Cm 30 μg/ml, 30 or 60 min (S1 Fig)), the “Cell viability during exposure” value is “fully retained”. In assay [1] (higher concentration than 30 μg/ml (200 μg/ml, Fig 2E)), the “Cell viability at higher concentration” value was “increasingly toxic”. For the same compound, in assay [2] (10 min after ARF48 induction or 60 min after Cm 30 or 200 μg/ml, non-induced culture 1.7 s), the “Exposure time set automatically by camera software (H33342 fluorescence)” value turned out to be 0.22 s. The “Uptake of H33342 following exposure” value in assay [2] (Cm 30 or 200 μg/ml (Fig 6)) is recorded as “enhanced”. For the same compound, in assay [3], the Nucleoid conformation entry is listed as “radially condensed”. The “Time until nucleoids radially condensed” value in assay [3] (after induction of expression or after exposure) lay in the range of 30 to 45 min.

`NC[C@H]1O[C@H](O[C@H]2[C@H](O)[C@@H](O[C@H]3O[C@H](CO)[C@@H](O)[C@H](N)[C@H]3O)[C@H](N)C[C@@H]2N)[C@H](O)[C@@H](O)[C@@H]1O` [Kan, kanamycin]: in assay [4] (low dose 3 μg/ml), the Cell division result is listed as “slowed but did not completely halt cell division”. Further, the “Decrease of cell viability” value in assay [1] (first hour of exposure, Kan 50 μg/ml (S1 Fig)) is listed as 5–6 orders of magnitude. For the same compound, in assay [3], the Nucleoid conformation result is reported as “only transient”. Moreover, the “σ32 concentration over time” value in assay [5] (20, 60 or 120 min of exposure (Fig 1E)) was “remained elevated”. The “σ32 level in cells” value in assay [5] (60 min after exposure, range of doses (Fig 1D)) is “accumulated to high relative concentration”.

As for `Cc1c2c(c(O)c3c(O)cccc13)C(=O)[C@]1(O)C(=O)C(C(N)=O)=C(O)[C@@H](N(C)C)[C@@H]1C2` [aTc, anhydrotetracycline], the Cell growth entry in assay [4] (0.2 μg/ml in culture medium) is on record as “not inhibited; also recorded: does not inhibit growth”.

Take `CO[C@H]1/C=C/O[C@@]2(C)Oc3c(C)c(O)c4c(O)c(c(/C=N/N5CCN(C)CC5)c(O)c4c3C2=O)NC(=O)/C(C)=C\C=C\[C@H](C)[C@H](O)[C@@H](C)[C@@H](O)[C@@H](C)[C@H](OC(C)=O)[C@@H]1C` [rifampicin]: in assay [6], the Nucleoid conformation entry is “transient condensation”.

Take `CN[C@@H]1[C@H](O)[C@H](NC)[C@H]2O[C@@]3(O)C(=O)C[C@@H](C)O[C@H]3O[C@@H]2[C@H]1O` [spectinomycin]: the “σ32 levels following exposure” value in assay [5] (non-resistant cells, 20 μg/ml, 20 and 60 min (S2 Fig)) was “unchanged”.

Regarding Kemptide, in assay [7], the “Recognition by DnaK (earlier studies)” value is given as “poorly recognized”.

The record behind these values is publication PMC9053816, “A polypeptide model for toxic aberrant proteins induced by aminoglycoside antibiotics” (PLoS ONE, 2022).
